Assay results as given in publication PMC7862291, “Full-length in meso structure and mechanism of rat kynurenine 3-monooxygenase inhibition” (Communications Biology, 2021).
pIC50: −log10 of the molar value. Several values for one entry are separate records, joined by “and”; a condition that tells them apart may be missing. Equal values may be shown once.

Legend:
[1] = molecular target: T1, HEK293 cells stably expressing human KMO (Homo sapiens, UniProt O15229); test: Cell-based human KMO inhibition assay (LC/MS of 3-hydroxykynurenine)
T1 construct: expressed in transfected cells
Procedure, shortened: (§1)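 HEK293 lines stably expressing human or rat KMO, pre-incubated ~30 min at 37 °C with compound (final 0–30 μM, 0.3% DMSO) in HBSS/20 mM HEPES. Then 2 h at 37 °C with 0.2 mM kynurenine (solution concentration). 3-Hydroxykynurenine in cell extracts quantified by LC-MS/MS, positive ESI.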

Rat KMO = molecular target: T2, Rat KMO (Rattus norvegicus, UniProt O88867); test: Rat KMO enzyme (cell-free) assay, NADPH consumption by absorbance; type: biochemical
T2 construct: The GST-tagged full-length KMO (1-478) baculovirus vector contained a thrombin cleavage site; GST (thrombin cleavage site between GST and KMO) (N, cleaved yes); made in house; host or cells: Spodoptera frugiperda (Sf9), baculovirus
Procedure, shortened: (§2)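 Recombinant human KMO or purified full-length rat KMO, pre-incubated 5 min with compound in HEPES buffer pH ~7.9 with MgCl2, EGTA, DTT, Tween20. Substrate mix of 2.4 mM kynurenine and 0.6 mM NADPH (solution concentrations) added; 90 min at 30 °C. Stopped with maleimide, then WST-9/1-methoxy-PMS colour read-out.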

hKMO = molecular target: T3, hKMO (Homo sapiens, UniProt O15229); test: Human KMO enzyme (cell-free) assay, NADPH consumption by absorbance; type: biochemical
T3 construct: purchased Origene
Procedure, shortened: as §2

[2] = molecular target: T4, HEK293 cells stably expressing rat KMO (Rattus norvegicus, UniProt O88867); test: Cell-based rat KMO inhibition assay (LC/MS of 3-hydroxykynurenine)
T4 construct: expressed in transfected cells
Procedure, shortened: as §1

T1 sequence (O15229 whole entry): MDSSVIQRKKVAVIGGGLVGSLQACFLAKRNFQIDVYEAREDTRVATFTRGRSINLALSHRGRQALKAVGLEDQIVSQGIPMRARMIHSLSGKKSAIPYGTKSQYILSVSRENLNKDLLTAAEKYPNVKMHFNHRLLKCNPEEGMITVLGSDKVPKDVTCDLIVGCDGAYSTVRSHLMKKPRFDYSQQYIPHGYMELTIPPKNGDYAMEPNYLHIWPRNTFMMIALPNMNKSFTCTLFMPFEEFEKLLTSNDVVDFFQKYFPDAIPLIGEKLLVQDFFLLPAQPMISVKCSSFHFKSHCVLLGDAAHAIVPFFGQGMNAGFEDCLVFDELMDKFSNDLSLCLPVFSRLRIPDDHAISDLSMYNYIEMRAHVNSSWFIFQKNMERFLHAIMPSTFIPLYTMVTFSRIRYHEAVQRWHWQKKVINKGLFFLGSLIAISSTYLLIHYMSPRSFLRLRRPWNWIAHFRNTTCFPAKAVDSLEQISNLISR
T3 sequence (O15229 whole entry): as above
T4 sequence (O88867 whole entry): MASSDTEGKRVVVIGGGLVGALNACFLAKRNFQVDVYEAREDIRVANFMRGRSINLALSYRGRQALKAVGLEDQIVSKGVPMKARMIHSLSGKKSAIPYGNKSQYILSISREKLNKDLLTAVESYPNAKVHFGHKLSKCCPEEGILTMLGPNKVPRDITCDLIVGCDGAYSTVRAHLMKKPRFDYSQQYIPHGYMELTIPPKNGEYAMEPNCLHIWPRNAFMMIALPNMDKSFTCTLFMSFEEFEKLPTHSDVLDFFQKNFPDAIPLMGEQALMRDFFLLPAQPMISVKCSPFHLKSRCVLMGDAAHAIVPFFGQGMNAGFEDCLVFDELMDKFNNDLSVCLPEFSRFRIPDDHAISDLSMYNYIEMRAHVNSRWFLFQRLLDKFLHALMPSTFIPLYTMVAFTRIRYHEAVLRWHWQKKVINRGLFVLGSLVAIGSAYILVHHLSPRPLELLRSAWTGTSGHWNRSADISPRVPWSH
T2 sequence (O88867 whole entry): as above

Work on Cc1cnn(-c2cccc(C(=O)O)c2)c1-c1ccccc1 [Compound 1] yielded an inhibition at 0.1 µM ([1]; HEK293, conc 0.1 μM, duplicates, read-out: inhibition rate, Hs-KMO cellular assay (Figure 1C source data)) of 17%, an inhibition at 0.3 µM ([1]; HEK293, conc 0.3 μM, duplicates, read-out: inhibition rate, Hs-KMO cellular assay (Figure 1C source data)) of 33.6% and an inhibition at 1 µM ([1]; HEK293, conc 1 μM, duplicates, read-out: inhibition rate, Hs-KMO cellular assay (Figure 1C source data)) of 60.2%. The inhibition at 3 µM ([1]; HEK293, conc 3 μM, duplicates, read-out: inhibition rate, Hs-KMO cellular assay (Figure 1C source data)) was 88.1%, the inhibition at 10 µM ([1]; HEK293, conc 10 μM, duplicates, read-out: inhibition rate, Hs-KMO cellular assay (Figure 1C source data)) was 100% and the inhibition at 30 µM ([1]; HEK293, conc 30 μM, duplicates, read-out: inhibition rate, Hs-KMO cellular assay (Figure 1C source data)) was 104%. For the same molecule, the pIC50 ([1]; HEK293 cells expressing human KMO, LC/MS, read-out: Human cell-based assay IC50) was 6.24, the “inhibition rate, Hs-KMO cellular assay (Figure 1C source data)” value (“inhibition rate, Hs-KMO cellular assay” below) ([1]; conc 0.03 μM, duplicates) was 1.868% and 10.412% and the “inhibition rate, Hs-KMO cellular assay” value ([1]; conc 0.1 μM, duplicates) was 14.953%. The “inhibition rate, Hs-KMO cellular assay” value ([1]; conc 0.3 μM, duplicates) was 36.860%, the “inhibition rate, Hs-KMO cellular assay” value ([1]; conc 1 μM, duplicates) was 55.900% and the “inhibition rate, Hs-KMO cellular assay” value ([1]; conc 3 μM, duplicates) was 85.656%. The “inhibition rate, Hs-KMO cellular assay” value ([1]; conc 10 μM, duplicates) was 99.963%, the “inhibition rate, Hs-KMO cellular assay” value ([1]; conc 30 μM, duplicates) was 103.556% and the pIC50 (Rat KMO; cell-free enzyme assay, high kynurenine) was 6.24. The “inhibition rate, Rat-KMO cell-free assay (Figure 1B source data)” value (from here on “inhibition rate, Rat-KMO cell-free assay”) (Rat KMO; conc 0.03 μM, duplicates) was 4.679% and 12.234%, the “inhibition rate, Rat-KMO cell-free assay” value (Rat KMO; conc 0.1 μM, duplicates) was 19.657% and the inhibition at 0.1 µM (Rat KMO; conc 0.1 μM, duplicates, read-out: inhibition rate, Rat-KMO cell-free assay (Figure 1B source data)) was 16%. The “inhibition rate, Rat-KMO cell-free assay” value (Rat KMO; conc 0.3 μM, duplicates) was 35.882%, the inhibition at 0.3 µM (Rat KMO; conc 0.3 μM, duplicates, read-out: inhibition rate, Rat-KMO cell-free assay (Figure 1B source data)) was 39.2% and the “inhibition rate, Rat-KMO cell-free assay” value (Rat KMO; conc 1 μM, duplicates) was 64.963%. The inhibition at 1 µM (Rat KMO; conc 1 μM, duplicates, read-out: inhibition rate, Rat-KMO cell-free assay (Figure 1B source data)) was 63.5%, the “inhibition rate, Rat-KMO cell-free assay” value (Rat KMO; conc 3 μM, duplicates) was 78.325% and the inhibition at 3 µM (Rat KMO; conc 3 μM, duplicates, read-out: inhibition rate, Rat-KMO cell-free assay (Figure 1B source data)) was 81.5%. For the same molecule, the “inhibition rate, Rat-KMO cell-free assay” value (Rat KMO; conc 10 μM, duplicates) was 86.225%, the inhibition at 10 µM (Rat KMO; conc 10 μM, duplicates, read-out: inhibition rate, Rat-KMO cell-free assay (Figure 1B source data)) was 85.2% and the “inhibition rate, Rat-KMO cell-free assay” value (Rat KMO; conc 30 μM, duplicates) was 94.681%. For the same molecule, the inhibition at 30 µM (Rat KMO; conc 30 μM, duplicates, read-out: inhibition rate, Rat-KMO cell-free assay (Figure 1B source data)) was 95.7%, the “inhibition rate, Rat-KMO cell-free assay” value (Rat KMO; conc 100 μM, duplicates) was 91.129% and the inhibition at 100 µM (Rat KMO; conc 100 μM, duplicates, read-out: inhibition rate, Rat-KMO cell-free assay (Figure 1B source data)) was 88.8%. For the same molecule, the pIC50 (hKMO; cell-free enzyme assay, high kynurenine, read-out: Human KMO IC50) was 6.80, the “inhibition rate, Hs-KMO cell-free assay (Figure 1A source data)” value (“inhibition rate, Hs-KMO cell-free assay” below) (hKMO; conc 0.03 μM, duplicates) was 13.527% and the inhibition at 0.03 µM (hKMO; conc 0.03 μM, duplicates, read-out: inhibition rate, Hs-KMO cell-free assay (Figure 1A source data)) was 15.1%. For the same molecule, the “inhibition rate, Hs-KMO cell-free assay” value (hKMO; conc 0.1 μM, duplicates) was 37.639%, the inhibition at 0.1 µM (hKMO; conc 0.1 μM, duplicates, read-out: inhibition rate, Hs-KMO cell-free assay (Figure 1A source data)) was 41.4% and the “inhibition rate, Hs-KMO cell-free assay” value (hKMO; conc 0.3 μM, duplicates) was 65.813%. For the same molecule, the inhibition at 0.3 µM (hKMO; conc 0.3 μM, duplicates, read-out: inhibition rate, Hs-KMO cell-free assay (Figure 1A source data)) was 66.6%, the “inhibition rate, Hs-KMO cell-free assay” value (hKMO; conc 1 μM, duplicates) was 77.715% and the inhibition at 1 µM (hKMO; conc 1 μM, duplicates, read-out: inhibition rate, Hs-KMO cell-free assay (Figure 1A source data)) was 82.9%. The “inhibition rate, Hs-KMO cell-free assay” value (hKMO; conc 3 μM, duplicates) was 95.862%, the inhibition at 3 µM (hKMO; conc 3 μM, duplicates, read-out: inhibition rate, Hs-KMO cell-free assay (Figure 1A source data)) was 99.1% and the “inhibition rate, Hs-KMO cell-free assay” value (hKMO; conc 10 μM, duplicates) was 92.894%. The inhibition at 10 µM (hKMO; conc 10 μM, duplicates, read-out: inhibition rate, Hs-KMO cell-free assay (Figure 1A source data)) was 97.2%, the “inhibition rate, Hs-KMO cell-free assay” value (hKMO; conc 30 μM, duplicates) was 103.928% and the inhibition at 30 µM (hKMO; conc 30 μM, duplicates, read-out: inhibition rate, Hs-KMO cell-free assay (Figure 1A source data)) was 104%. For the same molecule, the “inhibition rate, Hs-KMO cell-free assay” value (hKMO; conc 100 μM, duplicates) was 96.422%, the inhibition at 100 µM (hKMO; conc 100 μM, duplicates, read-out: inhibition rate, Hs-KMO cell-free assay (Figure 1A source data)) was 100% and the inhibition at 0.03 µM ([2]; HEK293, conc 0.03 μM, duplicates, read-out: inhibition rate, Rat-KMO cellular assay (Figure 1D source data)) was 4.96%. It also gave an inhibition at 0.1 µM ([2]; HEK293, conc 0.1 μM, duplicates, read-out: inhibition rate, Rat-KMO cellular assay (Figure 1D source data)) of 0.969%, an inhibition at 0.3 µM ([2]; HEK293, conc 0.3 μM, duplicates, read-out: inhibition rate, Rat-KMO cellular assay (Figure 1D source data)) of 4.27% and an inhibition at 3 µM ([2]; HEK293, conc 3 μM, duplicates, read-out: inhibition rate, Rat-KMO cellular assay (Figure 1D source data)) of 20.1%. It also gave an inhibition at 10 µM ([2]; HEK293, conc 10 μM, duplicates, read-out: inhibition rate, Rat-KMO cellular assay (Figure 1D source data)) of 58.4%, an inhibition at 30 µM ([2]; HEK293, conc 30 μM, duplicates, read-out: inhibition rate, Rat-KMO cellular assay (Figure 1D source data)) of 87.7% and a pIC50 ([2]; HEK293 cells expressing rat KMO, LC/MS) of 5.14. The “inhibition rate, Rat-KMO cellular assay (Figure 1D source data)” value (from here on “inhibition rate, Rat-KMO cellular assay”) ([2]; conc 0.03 μM, duplicates) was 3.155%, the “inhibition rate, Rat-KMO cellular assay” value ([2]; conc 0.1 μM, duplicates) was 1.853% and the “inhibition rate, Rat-KMO cellular assay” value ([2]; conc 0.3 μM, duplicates) was 6.904%. The “inhibition rate, Rat-KMO cellular assay” value ([2]; conc 3 μM, duplicates) was 21.339%, the “inhibition rate, Rat-KMO cellular assay” value ([2]; conc 10 μM, duplicates) was 59.197% and the “inhibition rate, Rat-KMO cellular assay” value ([2]; conc 30 μM, duplicates) was 87.499%.
